Key:
[1] = tested on: barnyard grass; experiment: Test Example 3: herbicidal effect by foliage application, Wagner pot (Table 18, symbol H); format: in vivo, barnyard grass (Echinochloa crus-galli); settings: 320 g/ha
In short: (§1)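 Plants were sown in alluvial soil held under 0.1–0.5 cm standing water and grown 14 days in a greenhouse at 25–30 °C. An emulsifiable formulation, water-diluted to the set dose, was then sprayed onto the foliage, and effects were scored three weeks later using previously defined criteria.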

[2] = tested on: Chinese sprangletop; experiment: Test Example 3: herbicidal effect by foliage application, Wagner pot (Table 18, symbol D); format: in vivo, chinese sprangletop (Leptochloa chinensis); settings: 320 g/ha
In short: as §1

[3] = tested on: rice flat sedge; experiment: Test Example 3: herbicidal effect by foliage application, Wagner pot (Table 18, symbol E); format: in vivo, rice flat sedge (Cyperus iria); settings: 320 g/ha
In short: as §1

[4] = tested on: southern crabgrass; experiment: Test Example 5: herbicidal effect by foliage application, plastic box (Table 20, symbol F); format: in vivo, southern crabgrass (Digitaria ciliaris); settings: amount of applied herbicide 320 g/ha; foliage application after 14-day growth; evaluated three weeks after application
In short: (§2)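 Plants were sown into sterilized diluvial soil under about 1.5 cm cover and kept in a greenhouse at 25° C. to 30° C. Fourteen days on, foliage received an even spray of the diluted emulsion. Herbicidal or crop effect was judged three weeks afterwards.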

[5] = tested on: green foxtail; experiment: Test Example 5: herbicidal effect by foliage application, plastic box (Table 20, symbol G); format: in vivo, green foxtail (Setaria viridis); settings: amount of applied herbicide 320 g/ha; foliage application after 14-day growth; evaluated three weeks after application
In short: as §2

[6] = tested on: barnyard grass; experiment: Test Example 5: herbicidal effect by foliage application, plastic box (Table 20, symbol H); format: in vivo, barnyard grass (Echinochloa crus-galli); settings: amount of applied herbicide 320 g/ha; foliage application after 14-day growth; evaluated three weeks after application
In short: as §2

[7] = tested on: wild oat; experiment: Test Example 5: herbicidal effect by foliage application, plastic box (Table 20, symbol I); format: in vivo, wild oat (Avena fatua); settings: amount of applied herbicide 320 g/ha; foliage application after 14-day growth; evaluated three weeks after application
In short: as §2

[8] = tested on: blackgrass; experiment: Test Example 5: herbicidal effect by foliage application, plastic box (Table 20, symbol J); format: in vivo, blackgrass (Alopecurus myosuroides); settings: amount of applied herbicide 320 g/ha; foliage application after 14-day growth; evaluated three weeks after application
In short: as §2

[9] = tested on: Italian ryegrass; experiment: Test Example 5: herbicidal effect by foliage application, plastic box (Table 20, symbol K); format: in vivo, Italian ryegrass (Lolium multiflorum); settings: amount of applied herbicide 320 g/ha; foliage application after 14-day growth; evaluated three weeks after application
In short: as §2

[10] = tested on: windgrass; experiment: Test Example 5: herbicidal effect by foliage application, plastic box (Table 20, symbol L); format: in vivo, windgrass (Apera spica-venti); settings: amount of applied herbicide 320 g/ha; foliage application after 14-day growth; evaluated three weeks after application
In short: as §2

[11] = tested on: velvetleaf; experiment: Test Example 5: herbicidal effect by foliage application, plastic box (Table 20, symbol M); format: in vivo, velvetleaf (Abutilon theophrasti); settings: amount of applied herbicide 320 g/ha; foliage application after 14-day growth; evaluated three weeks after application
In short: as §2

[12] = tested on: redroot pigweed; experiment: Test Example 5: herbicidal effect by foliage application, plastic box (Table 20, symbol N); format: in vivo, redroot pigweed (Amaranthus retroflexus); settings: amount of applied herbicide 320 g/ha; foliage application after 14-day growth; evaluated three weeks after application
In short: as §2

[13] = tested on: lambsquarters; experiment: Test Example 5: herbicidal effect by foliage application, plastic box (Table 20, symbol O); format: in vivo, lambsquarters (Chenopodium album); settings: amount of applied herbicide 320 g/ha; foliage application after 14-day growth; evaluated three weeks after application
In short: as §2

[14] = tested on: chickweed; experiment: Test Example 5: herbicidal effect by foliage application, plastic box (Table 20, symbol P); format: in vivo, common chickweed (Stellaria media); settings: amount of applied herbicide 320 g/ha; foliage application after 14-day growth; evaluated three weeks after application
In short: as §2

[15] = tested on: persian speedwell; experiment: Test Example 5: herbicidal effect by foliage application, plastic box (Table 20, symbol R); format: in vivo, Persian speedwell (Veronica persica); settings: amount of applied herbicide 320 g/ha; foliage application after 14-day growth; evaluated three weeks after application
In short: as §2

SMILES: CCCC(=O)Oc1c(C)nn(C)c(=O)c1-c1c(-c2ccccc2SCC)sc2c(Cl)cccc12 [4-091]
- herbicidal effect on barnyard grass (H) [1]: 5 (Herbicidal rate of 90% or more (almost completely withered))
- herbicidal effect on Chinese sprangletop (D) [2]: 5 (Herbicidal rate of 90% or more (almost completely withered))
- herbicidal effect on rice flat sedge (E) [3]: 3 (Herbicidal rate of 40% or more and less than 70%)
- Herbicidal effect by foliage application, F: southern crabgrass [4]: 4 (Herbicidal rate of 70% or more and less than 90%)
- Herbicidal effect by foliage application, G: green foxtail [5]: 3 (Herbicidal rate of 40% or more and less than 70%)
- Herbicidal effect by foliage application, H: barnyard grass [6]: 3 (Herbicidal rate of 40% or more and less than 70%)
- Herbicidal effect by foliage application, I: wild oat [7]: 0 (Herbicidal rate of 5% or less (almost no effect))
- Herbicidal effect by foliage application, J: blackgrass [8]: 0 (Herbicidal rate of 5% or less (almost no effect))
- Herbicidal effect by foliage application, K: Italian ryegrass [9]: 0 (Herbicidal rate of 5% or less (almost no effect))
- Herbicidal effect by foliage application, L: windgrass [10]: 0 (Herbicidal rate of 5% or less (almost no effect))
- Herbicidal effect by foliage application, M: velvetleaf [11]: 2 (Herbicidal rate of 20% or more and less than 40%)
- Herbicidal effect by foliage application, N: redroot pigweed [12]: 3 (Herbicidal rate of 40% or more and less than 70%)
- Herbicidal effect by foliage application, O: lambsquarters [13]: 1 (Herbicidal rate of 5% or more and less than 20%)
- Herbicidal effect by foliage application, P: chickweed [14]: 0 (Herbicidal rate of 5% or less (almost no effect))
- Herbicidal effect by foliage application, R: persian speedwell [15]: 4 (Herbicidal rate of 70% or more and less than 90%)

SMILES: CCSc1cccc(-c2sc3c(Cl)cccc3c2-c2c(O)c(C)nn(C)c2=O)c1 [4-092]
- herbicidal effect on barnyard grass (H) [1]: 5 (Herbicidal rate of 90% or more (almost completely withered))
- herbicidal effect on Chinese sprangletop (D) [2]: 3 (Herbicidal rate of 40% or more and less than 70%)
- herbicidal effect on rice flat sedge (E) [3]: 4 (Herbicidal rate of 70% or more and less than 90%)
- Herbicidal effect by foliage application, F: southern crabgrass [4]: 4 (Herbicidal rate of 70% or more and less than 90%)
- Herbicidal effect by foliage application, G: green foxtail [5]: 3 (Herbicidal rate of 40% or more and less than 70%)
- Herbicidal effect by foliage application, H: barnyard grass [6]: 3 (Herbicidal rate of 40% or more and less than 70%)
- Herbicidal effect by foliage application, I: wild oat [7]: 1 (Herbicidal rate of 5% or more and less than 20%)
- Herbicidal effect by foliage application, J: blackgrass [8]: 0 (Herbicidal rate of 5% or less (almost no effect))
- Herbicidal effect by foliage application, K: Italian ryegrass [9]: 2 (Herbicidal rate of 20% or more and less than 40%)
- Herbicidal effect by foliage application, L: windgrass [10]: 5 (Herbicidal rate of 90% or more (almost completely withered))
- Herbicidal effect by foliage application, M: velvetleaf [11]: 3 (Herbicidal rate of 40% or more and less than 70%)
- Herbicidal effect by foliage application, N: redroot pigweed [12]: 5 (Herbicidal rate of 90% or more (almost completely withered))
- Herbicidal effect by foliage application, O: lambsquarters [13]: 3 (Herbicidal rate of 40% or more and less than 70%)
- Herbicidal effect by foliage application, P: chickweed [14]: 4 (Herbicidal rate of 70% or more and less than 90%)
- Herbicidal effect by foliage application, R: persian speedwell [15]: 5 (Herbicidal rate of 90% or more (almost completely withered))

SMILES: CCCC(=O)Oc1c(C)nn(C)c(=O)c1-c1c(-c2cccc3c2OCC3)sc2c(Cl)cccc12 [4-099]
- herbicidal effect on barnyard grass (H) [1]: 5 (Herbicidal rate of 90% or more (almost completely withered))
- herbicidal effect on Chinese sprangletop (D) [2]: 5 (Herbicidal rate of 90% or more (almost completely withered))
- herbicidal effect on rice flat sedge (E) [3]: 4 (Herbicidal rate of 70% or more and less than 90%)
- Herbicidal effect by foliage application, F: southern crabgrass [4]: 0 (Herbicidal rate of 5% or less (almost no effect))
- Herbicidal effect by foliage application, G: green foxtail [5]: 0 (Herbicidal rate of 5% or less (almost no effect))
- Herbicidal effect by foliage application, H: barnyard grass [6]: 0 (Herbicidal rate of 5% or less (almost no effect))
- Herbicidal effect by foliage application, I: wild oat [7]: 0 (Herbicidal rate of 5% or less (almost no effect))
- Herbicidal effect by foliage application, J: blackgrass [8]: 0 (Herbicidal rate of 5% or less (almost no effect))
- Herbicidal effect by foliage application, K: Italian ryegrass [9]: 0 (Herbicidal rate of 5% or less (almost no effect))
- Herbicidal effect by foliage application, L: windgrass [10]: 0 (Herbicidal rate of 5% or less (almost no effect))
- Herbicidal effect by foliage application, M: velvetleaf [11]: 1 (Herbicidal rate of 5% or more and less than 20%)
- Herbicidal effect by foliage application, N: redroot pigweed [12]: 2 (Herbicidal rate of 20% or more and less than 40%)
- Herbicidal effect by foliage application, O: lambsquarters [13]: 0 (Herbicidal rate of 5% or less (almost no effect))
- Herbicidal effect by foliage application, P: chickweed [14]: 1 (Herbicidal rate of 5% or more and less than 20%)
- Herbicidal effect by foliage application, R: persian speedwell [15]: 4 (Herbicidal rate of 70% or more and less than 90%)

SMILES: CSc1ccccc1-c1sc2c(C)cccc2c1-c1c(O)c(C)nn(C)c1=O [4-116]
- herbicidal effect on barnyard grass (H) [1]: 3 (Herbicidal rate of 40% or more and less than 70%)
- herbicidal effect on Chinese sprangletop (D) [2]: 4 (Herbicidal rate of 70% or more and less than 90%)
- herbicidal effect on rice flat sedge (E) [3]: 3 (Herbicidal rate of 40% or more and less than 70%)
- Herbicidal effect by foliage application, F: southern crabgrass [4]: 0 (Herbicidal rate of 5% or less (almost no effect))
- Herbicidal effect by foliage application, G: green foxtail [5]: 0 (Herbicidal rate of 5% or less (almost no effect))
- Herbicidal effect by foliage application, H: barnyard grass [6]: 0 (Herbicidal rate of 5% or less (almost no effect))
- Herbicidal effect by foliage application, I: wild oat [7]: 0 (Herbicidal rate of 5% or less (almost no effect))
- Herbicidal effect by foliage application, J: blackgrass [8]: 0 (Herbicidal rate of 5% or less (almost no effect))
- Herbicidal effect by foliage application, K: Italian ryegrass [9]: 0 (Herbicidal rate of 5% or less (almost no effect))
- Herbicidal effect by foliage application, L: windgrass [10]: 0 (Herbicidal rate of 5% or less (almost no effect))
- Herbicidal effect by foliage application, M: velvetleaf [11]: 0 (Herbicidal rate of 5% or less (almost no effect))
- Herbicidal effect by foliage application, N: redroot pigweed [12]: 0 (Herbicidal rate of 5% or less (almost no effect))
- Herbicidal effect by foliage application, O: lambsquarters [13]: 0 (Herbicidal rate of 5% or less (almost no effect))
- Herbicidal effect by foliage application, P: chickweed [14]: 4 (Herbicidal rate of 70% or more and less than 90%)
- Herbicidal effect by foliage application, R: persian speedwell [15]: 4 (Herbicidal rate of 70% or more and less than 90%)

— patent publication US20230085307A1, “PYRIDAZINONE COMPOUND AND HERBICIDE” (NISSAN CHEMICAL CORPORATION, priority 2019, published 2023)
